Consider 5 compounds from ChEMBL document CHEMBL1201862, “PubChem BioAssay data set” (2004).

The nature of assay [1]: Intein inhibitors as potential Tuberculosis drugs, a cytotoxicity screen. [Related pubchem assays (depositor defined):AID2221, AID2223, AID434968, AID435010, AID449749, AID449750, AID489010]. In kind it is functional.
Assay [2] deals with Sphingosine 1-phosphate receptor 2 (Homo sapiens, UniProt O95136). Nature of the assay: Dose Response Cell Based Assay for Antagonists of the S1P2 Receptor. [Related pubchem assays: 856, 736 ]. The class given is functional.
Sequence of Sphingosine 1-phosphate receptor 2 (O95136 whole entry): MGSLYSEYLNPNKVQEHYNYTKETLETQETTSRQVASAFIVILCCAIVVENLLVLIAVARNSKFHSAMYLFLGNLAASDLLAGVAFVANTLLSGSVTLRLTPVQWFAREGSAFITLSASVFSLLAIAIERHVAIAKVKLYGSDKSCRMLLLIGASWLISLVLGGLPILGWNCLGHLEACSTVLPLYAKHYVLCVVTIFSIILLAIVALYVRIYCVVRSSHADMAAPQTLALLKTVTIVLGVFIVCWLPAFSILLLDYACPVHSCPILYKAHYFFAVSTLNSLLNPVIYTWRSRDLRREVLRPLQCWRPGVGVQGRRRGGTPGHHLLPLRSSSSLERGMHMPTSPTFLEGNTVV
For assay [3], the target named is Peroxisome proliferator-activated receptor gamma/Nuclear receptor corepressor 2 (Homo sapiens, UniProt P37231+Q9Y618). The class given is functional.
Sequence of Peroxisome proliferator-activated receptor gamma/Nuclear receptor corepressor 2 (P37231 whole entry): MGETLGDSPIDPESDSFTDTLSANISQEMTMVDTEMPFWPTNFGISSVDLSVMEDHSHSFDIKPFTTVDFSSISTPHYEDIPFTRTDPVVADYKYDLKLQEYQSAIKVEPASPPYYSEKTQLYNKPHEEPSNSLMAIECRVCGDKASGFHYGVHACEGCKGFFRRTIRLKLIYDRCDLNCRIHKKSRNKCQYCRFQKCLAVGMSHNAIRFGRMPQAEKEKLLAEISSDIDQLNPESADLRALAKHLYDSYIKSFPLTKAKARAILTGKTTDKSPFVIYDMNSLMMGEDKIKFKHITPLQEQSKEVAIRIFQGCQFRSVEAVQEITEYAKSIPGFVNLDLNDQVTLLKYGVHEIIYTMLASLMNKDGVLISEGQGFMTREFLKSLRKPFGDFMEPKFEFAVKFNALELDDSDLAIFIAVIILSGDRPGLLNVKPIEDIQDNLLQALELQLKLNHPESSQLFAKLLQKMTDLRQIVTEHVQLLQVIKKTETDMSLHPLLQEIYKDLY
Sequence of Peroxisome proliferator-activated receptor gamma/Nuclear receptor corepressor 2 (Q9Y618 whole entry): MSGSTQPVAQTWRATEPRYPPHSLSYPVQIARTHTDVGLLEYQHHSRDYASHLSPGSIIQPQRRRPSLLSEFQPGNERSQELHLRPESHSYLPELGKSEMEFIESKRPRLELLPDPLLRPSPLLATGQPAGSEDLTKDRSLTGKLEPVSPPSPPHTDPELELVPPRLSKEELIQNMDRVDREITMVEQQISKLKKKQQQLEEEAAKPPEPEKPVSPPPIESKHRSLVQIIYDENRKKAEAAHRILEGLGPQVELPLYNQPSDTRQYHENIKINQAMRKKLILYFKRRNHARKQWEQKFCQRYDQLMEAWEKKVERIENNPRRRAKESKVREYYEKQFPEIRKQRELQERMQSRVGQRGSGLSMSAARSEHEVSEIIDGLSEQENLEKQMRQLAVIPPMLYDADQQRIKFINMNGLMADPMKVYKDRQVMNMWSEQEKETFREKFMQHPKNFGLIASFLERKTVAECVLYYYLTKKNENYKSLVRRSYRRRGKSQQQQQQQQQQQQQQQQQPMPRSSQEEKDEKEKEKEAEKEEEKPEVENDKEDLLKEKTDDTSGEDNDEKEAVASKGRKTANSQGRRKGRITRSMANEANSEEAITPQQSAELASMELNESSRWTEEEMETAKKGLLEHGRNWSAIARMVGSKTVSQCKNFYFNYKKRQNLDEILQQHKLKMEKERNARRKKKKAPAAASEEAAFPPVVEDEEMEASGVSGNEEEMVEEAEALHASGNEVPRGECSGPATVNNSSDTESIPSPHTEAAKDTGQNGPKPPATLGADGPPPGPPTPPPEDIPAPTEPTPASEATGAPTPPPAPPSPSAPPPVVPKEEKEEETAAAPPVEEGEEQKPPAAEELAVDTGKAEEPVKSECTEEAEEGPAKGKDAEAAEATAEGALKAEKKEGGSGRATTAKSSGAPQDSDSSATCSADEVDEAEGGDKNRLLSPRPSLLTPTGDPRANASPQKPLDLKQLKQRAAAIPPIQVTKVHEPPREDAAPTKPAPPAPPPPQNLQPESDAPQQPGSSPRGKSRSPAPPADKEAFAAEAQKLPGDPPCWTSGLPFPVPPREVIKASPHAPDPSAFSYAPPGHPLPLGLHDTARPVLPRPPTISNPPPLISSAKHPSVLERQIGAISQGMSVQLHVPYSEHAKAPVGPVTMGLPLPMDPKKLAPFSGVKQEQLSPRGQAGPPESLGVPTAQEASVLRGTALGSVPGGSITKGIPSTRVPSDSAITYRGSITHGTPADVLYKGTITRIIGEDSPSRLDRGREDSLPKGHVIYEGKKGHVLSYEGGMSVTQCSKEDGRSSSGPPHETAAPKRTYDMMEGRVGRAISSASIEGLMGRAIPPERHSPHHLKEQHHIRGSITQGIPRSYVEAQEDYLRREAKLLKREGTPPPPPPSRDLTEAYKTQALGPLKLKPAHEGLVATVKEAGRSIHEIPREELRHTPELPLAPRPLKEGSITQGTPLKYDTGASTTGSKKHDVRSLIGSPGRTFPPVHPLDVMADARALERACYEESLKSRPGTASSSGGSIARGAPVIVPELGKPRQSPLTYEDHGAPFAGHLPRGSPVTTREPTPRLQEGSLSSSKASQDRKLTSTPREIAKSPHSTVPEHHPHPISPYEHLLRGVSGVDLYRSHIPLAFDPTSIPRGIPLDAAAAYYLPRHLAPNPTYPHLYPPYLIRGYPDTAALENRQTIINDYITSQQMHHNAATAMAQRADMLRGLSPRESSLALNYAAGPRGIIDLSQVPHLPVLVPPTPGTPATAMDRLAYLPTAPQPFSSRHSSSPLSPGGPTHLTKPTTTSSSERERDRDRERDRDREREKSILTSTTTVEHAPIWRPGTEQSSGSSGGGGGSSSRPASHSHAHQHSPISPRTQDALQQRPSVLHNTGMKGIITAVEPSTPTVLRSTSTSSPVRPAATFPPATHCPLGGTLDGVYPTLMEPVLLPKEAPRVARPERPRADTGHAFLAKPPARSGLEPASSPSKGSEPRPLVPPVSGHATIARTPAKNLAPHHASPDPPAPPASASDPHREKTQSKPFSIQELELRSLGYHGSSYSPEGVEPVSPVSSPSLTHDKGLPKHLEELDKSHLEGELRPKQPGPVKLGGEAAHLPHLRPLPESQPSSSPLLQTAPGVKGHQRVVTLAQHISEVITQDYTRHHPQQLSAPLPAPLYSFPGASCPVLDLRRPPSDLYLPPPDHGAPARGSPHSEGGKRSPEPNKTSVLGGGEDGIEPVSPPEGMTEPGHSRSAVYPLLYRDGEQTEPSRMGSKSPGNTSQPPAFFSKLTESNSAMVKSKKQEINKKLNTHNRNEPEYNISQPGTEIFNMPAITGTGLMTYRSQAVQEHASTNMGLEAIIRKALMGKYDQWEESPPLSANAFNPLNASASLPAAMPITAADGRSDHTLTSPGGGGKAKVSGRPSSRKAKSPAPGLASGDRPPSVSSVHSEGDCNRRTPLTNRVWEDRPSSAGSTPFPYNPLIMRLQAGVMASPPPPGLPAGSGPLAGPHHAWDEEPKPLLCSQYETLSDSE
Assay [4] has as its target T1, Zinc finger protein mex-5 (Caenorhabditis elegans, UniProt Q9XUB2).
T1 sequence (Q9XUB2 whole entry): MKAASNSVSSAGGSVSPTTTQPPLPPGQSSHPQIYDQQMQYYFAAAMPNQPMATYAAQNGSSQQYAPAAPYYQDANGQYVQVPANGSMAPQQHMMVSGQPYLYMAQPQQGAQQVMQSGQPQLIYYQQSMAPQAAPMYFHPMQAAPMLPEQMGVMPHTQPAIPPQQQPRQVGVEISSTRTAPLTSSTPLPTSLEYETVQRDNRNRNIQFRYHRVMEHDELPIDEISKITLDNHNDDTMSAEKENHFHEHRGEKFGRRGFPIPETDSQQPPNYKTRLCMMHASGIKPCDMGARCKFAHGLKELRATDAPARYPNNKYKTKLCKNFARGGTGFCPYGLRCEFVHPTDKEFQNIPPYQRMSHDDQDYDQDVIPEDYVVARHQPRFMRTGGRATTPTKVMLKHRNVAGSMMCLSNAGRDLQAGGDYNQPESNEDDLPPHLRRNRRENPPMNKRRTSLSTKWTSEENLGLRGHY
Nature of the assay: potency of MEX-5 RNA-binding blockers – biochemical, C. elegans, fluorescence polarization, dose response (AID 1960). For orientation: Fluorescence polarisation rises when a labelled molecule tumbles more slowly, as on binding a larger partner.

The target of assay [5] is Mothers against decapentaplegic homolog 3 (Homo sapiens, UniProt P84022). In words: inhibitors of SMAD-driven TGF-beta signaling – dose response (AID 715). In kind it is functional.
Sequence of Mothers against decapentaplegic homolog 3 (P84022 whole entry): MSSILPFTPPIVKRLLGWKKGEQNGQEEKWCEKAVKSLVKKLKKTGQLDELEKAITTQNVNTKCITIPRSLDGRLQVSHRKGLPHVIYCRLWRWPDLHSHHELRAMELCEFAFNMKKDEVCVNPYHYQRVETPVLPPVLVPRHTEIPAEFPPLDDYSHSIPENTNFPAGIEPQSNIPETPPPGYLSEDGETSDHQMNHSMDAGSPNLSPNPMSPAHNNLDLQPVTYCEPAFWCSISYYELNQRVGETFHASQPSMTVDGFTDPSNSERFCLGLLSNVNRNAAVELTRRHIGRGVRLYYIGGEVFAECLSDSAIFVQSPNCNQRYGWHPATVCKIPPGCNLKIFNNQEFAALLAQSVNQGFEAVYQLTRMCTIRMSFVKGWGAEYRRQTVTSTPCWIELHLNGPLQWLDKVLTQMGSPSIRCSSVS
The target in assay [6] is T2, Sentrin-specific protease 6 (Homo sapiens, UniProt Q9GZR1).
T2 sequence (Q9GZR1 whole entry): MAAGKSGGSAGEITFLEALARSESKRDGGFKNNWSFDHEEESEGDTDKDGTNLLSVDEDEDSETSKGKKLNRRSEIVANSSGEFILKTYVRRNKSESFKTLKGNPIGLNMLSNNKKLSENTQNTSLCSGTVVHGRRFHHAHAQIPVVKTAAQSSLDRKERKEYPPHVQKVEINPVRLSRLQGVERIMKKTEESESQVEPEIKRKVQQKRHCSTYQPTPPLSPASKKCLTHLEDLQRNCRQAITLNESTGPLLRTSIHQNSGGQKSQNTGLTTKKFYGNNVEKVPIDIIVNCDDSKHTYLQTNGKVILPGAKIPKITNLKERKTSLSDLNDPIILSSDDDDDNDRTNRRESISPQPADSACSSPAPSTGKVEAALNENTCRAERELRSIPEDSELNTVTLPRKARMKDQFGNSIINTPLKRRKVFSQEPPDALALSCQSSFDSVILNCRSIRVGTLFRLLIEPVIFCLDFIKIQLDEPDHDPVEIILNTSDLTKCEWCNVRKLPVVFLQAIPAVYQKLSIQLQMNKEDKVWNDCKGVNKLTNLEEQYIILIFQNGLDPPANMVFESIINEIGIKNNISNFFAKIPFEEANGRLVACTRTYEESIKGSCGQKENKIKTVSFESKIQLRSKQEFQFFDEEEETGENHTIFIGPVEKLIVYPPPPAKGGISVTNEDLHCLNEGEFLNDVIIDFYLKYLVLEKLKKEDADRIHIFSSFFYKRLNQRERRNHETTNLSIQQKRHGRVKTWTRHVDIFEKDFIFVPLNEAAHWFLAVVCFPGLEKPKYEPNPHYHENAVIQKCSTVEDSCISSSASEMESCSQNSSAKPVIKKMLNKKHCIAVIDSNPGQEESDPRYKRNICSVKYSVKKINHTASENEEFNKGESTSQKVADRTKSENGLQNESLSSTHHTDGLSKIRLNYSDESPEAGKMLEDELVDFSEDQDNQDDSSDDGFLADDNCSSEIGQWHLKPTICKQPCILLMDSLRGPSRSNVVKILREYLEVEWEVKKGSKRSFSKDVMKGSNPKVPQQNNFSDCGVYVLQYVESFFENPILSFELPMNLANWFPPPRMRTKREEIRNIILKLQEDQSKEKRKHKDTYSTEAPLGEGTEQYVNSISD
In words: SAR Analysis of small molecule inhibitors of Sentrin-specific protease 6 (SENP6) using a Luminescent assay. [Related pubchem assays (depositor defined):AID2582, AID2599]. In kind it is functional.

In assay [7] the target is T3, Heat shock factor protein 1 (Mus musculus, UniProt P38532).
T3 sequence (P38532 whole entry): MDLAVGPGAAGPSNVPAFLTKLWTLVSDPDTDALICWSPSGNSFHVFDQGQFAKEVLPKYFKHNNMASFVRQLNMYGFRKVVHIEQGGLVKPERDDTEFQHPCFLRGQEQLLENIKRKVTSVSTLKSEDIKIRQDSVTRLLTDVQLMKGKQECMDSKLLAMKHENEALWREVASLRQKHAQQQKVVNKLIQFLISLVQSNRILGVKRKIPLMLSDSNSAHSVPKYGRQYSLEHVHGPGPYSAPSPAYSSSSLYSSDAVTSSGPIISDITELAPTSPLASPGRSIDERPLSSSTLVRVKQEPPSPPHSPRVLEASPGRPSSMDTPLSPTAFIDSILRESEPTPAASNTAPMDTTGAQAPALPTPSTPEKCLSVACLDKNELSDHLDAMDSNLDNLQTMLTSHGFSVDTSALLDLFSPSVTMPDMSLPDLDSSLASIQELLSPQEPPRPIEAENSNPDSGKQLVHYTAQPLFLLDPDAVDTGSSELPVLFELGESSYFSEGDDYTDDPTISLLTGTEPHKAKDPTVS
Nature of the assay: decrease of HSF1-responsive luciferase luminescence – cell-based, NIH3T3, dose retest, confirmation (AID 2382).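 Note: NIH3T3 fibroblasts with HSF1-driven luciferase reporter stressed by proteasome inhibitor MG132; luminescence from HSF1-driven luciferase expression after 8 hours of MG132 stress.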 The class given is functional.

The target of assay [8] is Heat shock protein HSP 90-alpha (Homo sapiens, UniProt P07900). The class given is functional, organism-based.
Assay [9] can be described thus: NIH3T3 cell viability loss – ATP luminescence, mouse fibroblasts, counter-screen, dose response (AID 2010).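 Note: cells exposed to compound for about 90 hours before reading.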 In kind it is functional, cell-based. For orientation: A counterscreen serves to expose hits that act by an unwanted route or on another target.
The test system of assay [10] is HEK293. Nature of the assay: SAR Analysis of small molecule inhibitors of T-cell specific antigen receptor-induced NF-kB activation in a HEK-293T cell line using a luminescence assay - Set 2. [Related pubchem assays (depositor defined):AID435003, AID435012, AID489026]. The class given is functional, cell-based. To be noted: Homo sapiens.
Assay [11] concerns BJ. In words: BJ-TERT-LT-ST fibroblast viability loss – cell-based, RAS-independent, luminescence, dose response (AID 1935).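 Note: BJ fibroblasts immortalized with TERT plus LT and ST oncogenes.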 In kind it is functional. As to conditions: Homo sapiens.

The source made the active and inactive calls.
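Throughout, for CC50: cells exposed to compound for 72 hours before luminescence readout.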

What is called CC50 is the concentration at which the toxic effect on the cells reaches its halfway point. Usually IC50 stands for the concentration that inhibits the measured activity by half. By EC50 is commonly meant the concentration at which the effect is half-maximal. Take `Cn1nc(-c2ccc(Cl)cc2)nc2c(=O)n(C)c(=O)nc1-2`: the CC50 in assay [1] was > 40 µM (active). Besides, the results for the half-maximal inhibitory concentration (IC50) in assay [2], in assay [3] and in assay [5] were 0.996 µM (active), > 4.43 µM (active) and 0.039 µM (active), respectively. Besides, the EC50 in assay [4] is 16.8 µM (active).

As to `CCCCNc1cc(NC(C)=O)cc2cc(OC)c(OC)cc12`, the half-inhibitory concentration (IC50) in assay [6] was 82 µM (active).

A word on the AC50: it is the concentration at which the activity in the assay is half-maximal. For `SC1=Nc2ccccc2C1`, the values for the EC50 in assay [7] and in assay [9] were 0.79 µM (active) and 15.8 µM (active), respectively. Further, the AC50 in [8] is 3.88 µM (active).

As to `COc1ccc(C(NC(=O)C(C)C)c2ccc3cccnc3c2O)cc1` (stereo unspecified), in assay [10], the IC50 was 3.15 µM (active).

For the compound `O=C(Cc1ccc([N+](=O)[O-])cc1)N/N=C/c1ccc([N+](=O)[O-])o1`, the EC50 in assay [11] was 18.3 µM (active).
